According to the CheMixHub viscosity set:

Assay: xn = mol fraction of the nth substance listed

C1CCCCC1 + c1ccccc1
Details	viscosity [mPa·s]
293.15 K, 101 kPa, x2 = 0.094	0.893
293.15 K, 101 kPa, x2 = 0.251	0.762
293.15 K, 101 kPa, x2 = 0.418	0.684
293.15 K, 101 kPa, x2 = 0.582	0.649
293.15 K, 101 kPa, x2 = 0.736	0.628
293.15 K, 101 kPa, x2 = 0.891	0.636
293.15 K, 101.32 kPa, x1 = 0.069	0.634
293.15 K, 101.33 kPa, x1 = 0.4	0.6789
293.65 K, 101.33 kPa, x1 = 0.1	0.6528
293.85 K, 101.33 kPa, x1 = 0.3	0.6581
294.35 K, 101.33 kPa, x1 = 0.7	0.7579
294.55 K, 101.33 kPa, x1 = 0.85	0.8416
294.85 K, 101.33 kPa, x1 = 0.6	0.7104
296.05 K, 101.33 kPa, x1 = 0.2	0.631
298 K, 101 kPa, x1 = 0.077	0.654
298 K, 101 kPa, x1 = 0.1226	0.654
298 K, 101 kPa, x1 = 0.1659	0.657
298 K, 101 kPa, x1 = 0.1692	0.66
298 K, 101 kPa, x1 = 0.2368	0.665
298 K, 101 kPa, x1 = 0.2613	0.669
298 K, 101 kPa, x1 = 0.2942	0.678
298 K, 101 kPa, x1 = 0.2951	0.674
298 K, 101 kPa, x1 = 0.6686	0.787
298.1 K, 101 kPa, x1 = 0.2	0.581
298.1 K, 101 kPa, x1 = 0.4	0.588
298.1 K, 101 kPa, x1 = 0.5	0.606
298.1 K, 101 kPa, x1 = 0.6	0.629
298.1 K, 101 kPa, x1 = 0.8	0.702
298.15 K, 100 kPa, x2 = 0.2504	0.7321
298.15 K, 100 kPa, x2 = 0.4997	0.6299
298.15 K, 100 kPa, x2 = 0.7497	0.575
298.15 K, 101 kPa, x1 = 0.0407	0.5938
298.15 K, 101 kPa, x1 = 0.0977	0.5871
298.15 K, 101 kPa, x1 = 0.1489	0.5839
298.15 K, 101 kPa, x1 = 0.1991	0.581
298.15 K, 101 kPa, x1 = 0.2609	0.5691
298.15 K, 101 kPa, x1 = 0.3011	0.5852
298.15 K, 101 kPa, x1 = 0.3095	0.574
298.15 K, 101 kPa, x1 = 0.3586	0.5843
298.15 K, 101 kPa, x1 = 0.3991	0.5953
298.15 K, 101 kPa, x1 = 0.4089	0.5884
298.15 K, 101 kPa, x1 = 0.4513	0.6073
298.15 K, 101 kPa, x1 = 0.4887	0.5861
298.15 K, 101 kPa, x1 = 0.4987	0.6127
298.15 K, 101 kPa, x1 = 0.5798	0.6263
298.15 K, 101 kPa, x1 = 0.5965	0.6256
298.15 K, 101 kPa, x1 = 0.6017	0.6403
298.15 K, 101 kPa, x1 = 0.6481	0.6489
298.15 K, 101 kPa, x1 = 0.6986	0.6783
298.15 K, 101 kPa, x1 = 0.7128	0.6954
298.15 K, 101 kPa, x1 = 0.8006	0.7301
298.15 K, 101 kPa, x1 = 0.8959	0.7929
298.15 K, 101 kPa, x1 = 0.9313	0.8219
298.15 K, 101 kPa, x1 = 0.9638	0.8484
298.15 K, 101 kPa, x2 = 0.0136	0.8732
298.15 K, 101 kPa, x2 = 0.1	0.7978
298.15 K, 101 kPa, x2 = 0.1043	0.8022
298.15 K, 101 kPa, x2 = 0.2	0.734
298.15 K, 101 kPa, x2 = 0.2011	0.7423
298.15 K, 101 kPa, x2 = 0.203	0.7292
298.15 K, 101 kPa, x2 = 0.2438	0.7115
298.15 K, 101 kPa, x2 = 0.3015	0.6869
298.15 K, 101 kPa, x2 = 0.31	0.6772
298.15 K, 101 kPa, x2 = 0.4	0.641
298.15 K, 101 kPa, x2 = 0.4038	0.6514
298.15 K, 101 kPa, x2 = 0.441	0.6283
298.15 K, 101 kPa, x2 = 0.5005	0.6313
298.15 K, 101 kPa, x2 = 0.549	0.6011
298.15 K, 101 kPa, x2 = 0.6	0.593
298.15 K, 101 kPa, x2 = 0.6032	0.6107
298.15 K, 101 kPa, x2 = 0.611	0.595
298.15 K, 101 kPa, x2 = 0.7006	0.5985
298.15 K, 101 kPa, x2 = 0.733	0.5877
298.15 K, 101 kPa, x2 = 0.7848	0.574
298.15 K, 101 kPa, x2 = 0.7996	0.6
298.15 K, 101 kPa, x2 = 0.8	0.587
298.15 K, 101 kPa, x2 = 0.883	0.5923
298.15 K, 101 kPa, x2 = 0.9011	0.609
298.15 K, 101.33 kPa, x1 = 0.0984	0.582
298.15 K, 101.33 kPa, x1 = 0.1986	0.576
298.15 K, 101.33 kPa, x1 = 0.3009	0.579
298.15 K, 101.33 kPa, x1 = 0.4008	0.589
298.15 K, 101.33 kPa, x1 = 0.4989	0.609
298.15 K, 101.33 kPa, x1 = 0.552	0.623
298.15 K, 101.33 kPa, x1 = 0.6007	0.639
298.15 K, 101.33 kPa, x1 = 0.6478	0.653
298.15 K, 101.33 kPa, x1 = 0.7475	0.699
298.15 K, 101.33 kPa, x1 = 0.8011	0.733
298.15 K, 101.33 kPa, x1 = 0.9022	0.803
298.15 K, 101.33 kPa, x2 = 0.1282	0.7622
298.15 K, 101.33 kPa, x2 = 0.15	0.7725
298.15 K, 101.33 kPa, x2 = 0.2174	0.7122
298.15 K, 101.33 kPa, x2 = 0.2438	0.7115
298.15 K, 101.33 kPa, x2 = 0.3364	0.6599
298.15 K, 101.33 kPa, x2 = 0.35	0.6571
298.15 K, 101.33 kPa, x2 = 0.4874	0.6124
298.15 K, 101.33 kPa, x2 = 0.5	0.612
298.15 K, 101.33 kPa, x2 = 0.549	0.6011
298.15 K, 101.33 kPa, x2 = 0.647	0.5879
298.15 K, 101.33 kPa, x2 = 0.65	0.5853
298.15 K, 101.33 kPa, x2 = 0.7814	0.583
298.15 K, 101.33 kPa, x2 = 0.7848	0.574
298.15 K, 101.33 kPa, x2 = 0.9	0.5761
298.15 K, 101.33 kPa, x2 = 0.9033	0.5926
303.15 K, 101 kPa, x1 = 0.0989	0.5467
303.15 K, 101 kPa, x1 = 0.1983	0.5433
303.15 K, 101 kPa, x1 = 0.3019	0.5485
303.15 K, 101 kPa, x1 = 0.3998	0.5602
303.15 K, 101 kPa, x1 = 0.5035	0.5792
303.15 K, 101 kPa, x1 = 0.6015	0.6041
303.15 K, 101 kPa, x1 = 0.7002	0.6378
303.15 K, 101 kPa, x1 = 0.7987	0.6822
303.15 K, 101 kPa, x1 = 0.8977	0.7447
303.15 K, 101 kPa, x2 = 0.094	0.755
303.15 K, 101 kPa, x2 = 0.1043	0.7412
303.15 K, 101 kPa, x2 = 0.2011	0.6892
303.15 K, 101 kPa, x2 = 0.251	0.658
303.15 K, 101 kPa, x2 = 0.3015	0.6418
303.15 K, 101 kPa, x2 = 0.4038	0.6099
303.15 K, 101 kPa, x2 = 0.418	0.594
303.15 K, 101 kPa, x2 = 0.5005	0.5913
303.15 K, 101 kPa, x2 = 0.582	0.566
303.15 K, 101 kPa, x2 = 0.6032	0.5734
303.15 K, 101 kPa, x2 = 0.7006	0.5632
303.15 K, 101 kPa, x2 = 0.736	0.55
303.15 K, 101 kPa, x2 = 0.7996	0.5634
303.15 K, 101 kPa, x2 = 0.891	0.555
303.15 K, 101 kPa, x2 = 0.9011	0.5689
303.45 K, 101.33 kPa, x1 = 0.7	0.6645
303.55 K, 101.33 kPa, x1 = 0.5	0.6035
303.65 K, 101.33 kPa, x1 = 0.4	0.5874
303.75 K, 101.33 kPa, x1 = 0.3	0.5794
304.25 K, 101.33 kPa, x1 = 0.85	0.7288
304.55 K, 101.33 kPa, x1 = 0.6	0.6189
306.35 K, 101.33 kPa, x1 = 0.2	0.5538
308.15 K, 101 kPa, x2 = 0.1043	0.6842
308.15 K, 101 kPa, x2 = 0.2011	0.6409
308.15 K, 101 kPa, x2 = 0.3015	0.5971
308.15 K, 101 kPa, x2 = 0.4038	0.5697
308.15 K, 101 kPa, x2 = 0.5005	0.5535
308.15 K, 101 kPa, x2 = 0.6032	0.537
308.15 K, 101 kPa, x2 = 0.7006	0.5274
308.15 K, 101 kPa, x2 = 0.7996	0.5266
308.15 K, 101 kPa, x2 = 0.9011	0.5325
312.15 K, 101.33 kPa, x1 = 0.1	0.5154
312.65 K, 101.33 kPa, x1 = 0.4	0.5272
312.65 K, 101.33 kPa, x1 = 0.5	0.5397
312.75 K, 101.33 kPa, x1 = 0.3	0.5184
312.85 K, 101.33 kPa, x1 = 0.6	0.5535
313.15 K, 101 kPa, x2 = 0.094	0.651
313.15 K, 101 kPa, x2 = 0.1043	0.6342
313.15 K, 101 kPa, x2 = 0.2011	0.5944
313.15 K, 101 kPa, x2 = 0.251	0.574
313.15 K, 101 kPa, x2 = 0.3015	0.5574
313.15 K, 101 kPa, x2 = 0.4038	0.5315
313.15 K, 101 kPa, x2 = 0.418	0.53
313.15 K, 101 kPa, x2 = 0.5005	0.5172
313.15 K, 101 kPa, x2 = 0.582	0.499
313.15 K, 101 kPa, x2 = 0.6032	0.5037
313.15 K, 101 kPa, x2 = 0.7006	0.494
313.15 K, 101 kPa, x2 = 0.736	0.489
313.15 K, 101 kPa, x2 = 0.7996	0.4952
313.15 K, 101 kPa, x2 = 0.891	0.49
313.15 K, 101 kPa, x2 = 0.9011	0.4973
313.25 K, 101.33 kPa, x1 = 0.2	0.5122
314.15 K, 101.33 kPa, x1 = 0.85	0.6325
315.75 K, 101.33 kPa, x1 = 0.7	0.5676
322.55 K, 101.33 kPa, x1 = 0.6	0.5006
322.85 K, 101.33 kPa, x1 = 0.85	0.567
322.95 K, 101.33 kPa, x1 = 0.1	0.4571
322.95 K, 101.33 kPa, x1 = 0.4	0.4739
323.15 K, 100 kPa, x2 = 0.2504	0.5258
323.15 K, 100 kPa, x2 = 0.4997	0.4555
323.15 K, 100 kPa, x2 = 0.7497	0.4303
323.15 K, 101 kPa, x2 = 0.094	0.567
323.15 K, 101 kPa, x2 = 0.251	0.506
323.15 K, 101 kPa, x2 = 0.418	0.471
323.15 K, 101 kPa, x2 = 0.582	0.445
323.15 K, 101 kPa, x2 = 0.736	0.442
323.15 K, 101 kPa, x2 = 0.891	0.438
